Results as given in patent US20030104489A1, “Functional assay for agonist activation of receptors” (Pfizer Inc., priority 2001, published 2003).

System: D3-G[…]15 cells
Experiment: FLIPR assay of intracellular Ca2+ release in D3-Gα15 cells, effect of pre-incubation time at 37 °C (Table 2)
Type: cell-based
Conditions: for Ca2+ response (FLIPR signal), time at 37 °C: 5 min: 5 min pre-incubation at 37 °C; for Ca2+ response (FLIPR signal), time at 37 °C: 5 min / Ca2+ response (FLIPR signal), time at 37 °C: 15 min / % change (elevation of FLIPR signal, 5 min to 15 min pre-incubation at 37 °C): dopamine 100 nM; for Ca2+ response (FLIPR signal), time at 37 °C: 5 min / Ca2+ response (FLIPR signal), time at 37 °C: 15 min: (at or above EC90); for Ca2+ response (FLIPR signal), time at 37 °C: 15 min: 15 min pre-incubation at 37 °C; for % change (elevation of FLIPR signal, 5 min to 15 min pre-incubation at 37 °C): 15 min vs 5 min at 37 °C; for effect of prolonged preincubation at 37 °C on the induced Ca2+ response: ATP via endogenous purinergic receptors, ionomycin as ionophore
Description: The HEK293-Gα15 cell line stably expressing the D3 receptor was used to develop Ca^2+-based assay using the FLIPR-based method. Cells were plated in a 96 or 384 well poly-D lysine-coated FLIPR plates for 16-24 hours before the assay. Cells were loaded with cell dye-media solution (media −11 ml, dye-4 μM Fluo-4 AM, Pluronic® acid 22 ul, probenecid −110 ul of 260 mM solution) for 1 hour at 37° C. The plates were washed in the Skatron Embla™ plate washer with assay buffer (NaCl—0.145M, Glucose—0.01 M, KCl—0.005M, MgSO4—0.001 M, HEPES—0.01 M and CaCl2—0.002M) and stabilized for 30 minutes at 25° C. and 37° C., respectively, before starting the experiment. Antagonists were added 15 minutes prior to the agonist addition. The fluorescence intensities were measured using the excitation and emission wavelengths of 488 nm and 520 nm respectively. Data are taken as the average +S.D. of four replicates.
[…]. The elevation of FLIPR signal (in percentage) in 5 min and 15 min pre-incubation at 37° C. is shown.

| Compound | Ca2+ response (FLIPR signal), time at 37 °C: 5 min | Ca2+ response (FLIPR signal), time at 37 °C: 15 min | % change (elevation of FLIPR signal, 5 min to 15 min pre-incubation at 37 °C) | effect of prolonged preincubation at 37 °C on the induced Ca2+ response |
| --- | --- | --- | --- | --- |
| NCCc1ccc(O)c(O)c1 [Dopamine, dopamine] | 157 ± 47 | 550 ± 38 | 257% |  |
| C[C@H](CCC(=O)O)C[C@H](C)C[C@H](C)C(=O)/C=C(\O)[C@H](C)C[C@H](C)C/C=C/[C@@H](C)[C@@H](O)[C@@H](C)[C@@H](O)C[C@@H]1CC[C@@](C)([C@H]2CC[C@@](C)([C@@H](C)O)O2)O1 [ionomycin] | 8042 ± 652 | 8465 ± 132 | 5% | not affected |
| Nc1ncnc2c1ncn2[C@@H]1O[C@H](COP(=O)(O)OP(=O)(O)OP(=O)(O)O)[C@@H](O)[C@H]1O [ATP] | 2859 ± 630 | 3346 ± 171 | 17% | not affected |
